Experimental data: patent publication US11932630B2, “Heteroaryl aminopropanol derivatives” (NOVARTIS AG, priority 2021, dated 2024)
Values belong to the compound of their own block, whether it stands above or below them.

What was measured:
Hygroscopicity by DVS = type: physicochemical; conditions: for Hygroscopicity (DVS), moisture / water vapor absorbed: at 95% RH
[1] = Loss on drying by TGA after storage at 92 % RH; type: physicochemical; conditions: heating rate 10 K/min, % @ °C, temperature in the line below (100, 230, 170, 195 °C)
Procedure: Thermoaravimetric Analysis (TGA):
TGA curves were obtained using a TA-instrument Q5000. 0.5-2 mg of sample was placed into an open aluminum pan. The TGA curve was measured at 10° C./min between 30-300° C. The LoD (Loss of drying) was calculated between 30° C. and 100° C. or 150° C. The weight loss is plotted against the measured sample temperature. Temperatures are reported in degrees Celsius (° C.) and weight loss in %.

human LTA4H = target: T1, human LTA4H (Homo sapiens, UniProt P09960); assay: Human LTA4H enzyme assay (Arg-AMC substrate); type: biochemical; conditions: Arg-AMC 600 μM, 9 nM human LTA4H, 15 min pre-incubation; mean values of at least 3 measurements; read-out: ArgAMC IC50
T1 sequence (P09960 1-611): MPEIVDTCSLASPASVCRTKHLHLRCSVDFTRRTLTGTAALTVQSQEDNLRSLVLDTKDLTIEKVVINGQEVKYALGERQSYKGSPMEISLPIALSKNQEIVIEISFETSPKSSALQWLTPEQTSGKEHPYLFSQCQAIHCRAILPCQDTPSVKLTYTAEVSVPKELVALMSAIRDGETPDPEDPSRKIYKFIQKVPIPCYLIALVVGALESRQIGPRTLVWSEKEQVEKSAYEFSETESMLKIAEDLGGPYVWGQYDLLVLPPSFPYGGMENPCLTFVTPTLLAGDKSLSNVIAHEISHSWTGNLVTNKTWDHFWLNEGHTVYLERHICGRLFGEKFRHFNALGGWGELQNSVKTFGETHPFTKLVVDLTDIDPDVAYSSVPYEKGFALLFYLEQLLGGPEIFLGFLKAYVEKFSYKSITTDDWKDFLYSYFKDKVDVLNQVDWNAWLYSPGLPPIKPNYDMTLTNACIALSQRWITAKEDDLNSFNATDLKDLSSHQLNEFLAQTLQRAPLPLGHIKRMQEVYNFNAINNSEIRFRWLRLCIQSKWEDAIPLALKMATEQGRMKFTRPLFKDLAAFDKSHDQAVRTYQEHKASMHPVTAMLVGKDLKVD
Procedure: a) Human LTA4H Enzyme Assay:
[…] (LTA4H) catalyzes the vinylogous hydrolysis of the epoxide, leukotriene A4 (LTA4) into the pro-inflammatory mediator LTB4.
For compound testing, compounds are delivered as 10 mM stock solutions in 90% DMSO (10% water) in matrix tubes. […] A final substrate concentration of 600 μM, which is around the KM value of Arg-AMC, at a final enzyme concentration of 9 nM is chosen. Upon addition of the substrate, the plate is immediately placed in a fluorescence reader and the fluorescence is measured every 10 minutes for 60 minutes using the filter setting λ excitation=380 nm and A emission=460 nm. […] Raw data is converted to rate (moles per minute) using the AMC calibration curve calculated from the AMC standards. The data is analyzed in GraphPad Prism (GraphPad software Inc.) using non-linear regression to determine IC50 values of LTA4H inhibitors.

[2] = tested on: LTB4 biosynthesis in human whole blood; assay: Human whole blood assay (hWB), inhibition of LTB4 biosynthesis; type: cell-based; conditions: human blood diluted 1:3, 4 hours with compound, 10 μg/ml A23187 for 15 min, eicosanoid by ELISA; read-out: hWB IC50
Procedure: b) Human Whole Blood Assay:
Compounds are tested in a human whole blood assay (hWB) to test their ability to inhibit LTB4 biosynthesis in a human cellular system. To this end, fresh blood is collected in heparinized vacutainers by venipuncture from volunteers. Blood is diluted 1:3 with RPM (Roswell Park Memorial Institute) medium and aliquots of 200 μL are transferred to 96-well round bottom cell culture plates. For compound testing, compounds are delivered as 10 mM stock solutions in 90% DMSO in matrix tubes. […] 4 μL of compound dilution or vehicle is added to 200 μL of blood and incubated for 4 hours at 37° C. in a humidified incubator. […] Incubation is terminated by centrifugation at 300 g for 10 min at 22° C. Plasma supernatant is taken and transferred to a 96 well plate for eicosanoid determination by ELISA (Assay designs) according to the manufacturer's protocol after 1:20 dilution in assay buffer. The data is analyzed in GraphPad Prism (GraphPad software Inc.) using non-linear regression to determine IC50 values of LTA4H inhibitors.

SMILES: NC(CO)Cc1nnn(-c2ccc(Oc3ncc(Cl)cc3F)cc2)n1 (racemic) [Example 39, 2-Amino-3-(2-(4-((5-chloro-3-fluoropyridin-2-yl)oxy)phenyl)-2H-tetrazol-5-yl)propan-1-ol]
- IC50 (human LTA4H): 2.2 nM
- IC50 [2]: 63 nM

SMILES: CC(O)[C@@H](N)Cc1nc(-c2ccc(Oc3ncc(Br)cc3F)cc2)no1 (mixture of isomers) [Example 18, (3S)-3-amino-4-(3-(4-((5-bromo-3-fluoropyridin-2-yl)oxy)phenyl)-1,2,4-oxadiazol-5-yl)butan-2-ol]
- IC50 (human LTA4H): 6.1 nM
- IC50 [2]: 343 nM

SMILES: N[C@H](CO)Cc1nc(-c2cccc([C@@H]3COc4ccccc4O3)c2)no1 [Example 15, (S)-2-amino-3-(3-(3-((R)-2,3-dihydrobenzo[b][1,4]dioxin-2-yl)phenyl)-1,2,4-oxadiazol-5-yl)propan-1-ol]
- IC50 (human LTA4H): 2.9 nM
- IC50 [2]: 79 nM

SMILES: N[C@H](CO)Cn1nnc(-c2ccc(Oc3ccc(C4CC4)cn3)cc2)n1 [Example 28, (S)-2-Amino-3-(5-(4-((5-cyclopropylpyridin-2-yl)oxy)phenyl)-2H-tetrazol-2-yl)propan-1-ol]
- IC50 (human LTA4H): 6.2 nM
- IC50 [2]: 504 nM

SMILES: N[C@H](CO)Cn1nnc(-c2ccc(Oc3ccc(Br)cn3)cc2)n1 [Example 33, (S)-2-Amino-3-(5-(4-((5-bromopyridin-2-yl)oxy)phenyl)-2H-tetrazol-2-yl)propan-1-ol]
- IC50 (human LTA4H): 2.4 nM
- IC50 [2]: 290 nM

Further lines, results first:

- Hygroscopicity (DVS), moisture / water vapor absorbed (Hygroscopicity by DVS; listed as hydrochloride salt (Form E)): 0.6%
- Loss on drying by TGA, After 1 day at 92 % RH ([1]; listed as Ex 43): 0.30 @ %
SMILES: N[C@H](CO)Cn1ccc(-c2ccc(Oc3ncc(-c4ccn[nH]4)cc3F)cc2)n1 [Example 43, (S)-2-amino-3-(3-(4-((3-fluoro-5-(1H-pyrazol-5-yl)pyridin-2-yl)oxy)phenyl)-1H-pyrazol-1-yl)propan-1-ol]

- Hygroscopicity (DVS), moisture / water vapor absorbed (Hygroscopicity by DVS; listed as Modification A): about 0.5%
- Hygroscopicity (DVS), moisture / water vapor absorbed (Hygroscopicity by DVS; listed as hippurate salt (Form A)): 0.5%
SMILES: N[C@H](CO)Cn1ccc(-c2ccc(Oc3ncc(-c4ccn[nH]4)cc3F)cc2)n1 [Example 45, (S)-2-amino-3-(3-(4-((3-fluoro-5-(1H-pyrazol-5-yl)pyridin-2-yl)oxy)phenyl)-1H-pyrazol-1-yl)propan-1-ol]

- Hygroscopicity (DVS), moisture / water vapor absorbed (Hygroscopicity by DVS): 0.32% @ 95% RH
- Hygroscopicity (DVS), moisture / water vapor absorbed (Hygroscopicity by DVS; listed as hippuric acid salt (Form B)): about 0.3%
- Loss on drying by TGA, After 1 day at 92 % RH ([1]; listed as Ex 44): 0.21 @ %
SMILES: N[C@H](CO)Cn1ccc(-c2ccc(Oc3ncc(-c4ccn[nH]4)cc3F)cc2)n1 [Example 44, (S)-2-amino-3-(3-(4-((3-fluoro-5-(1H-pyrazol-3-yl)pyridin-2-yl)oxy)phenyl)-1H-pyrazol-1-yl)propan-1-ol]

- Loss on drying by TGA, After 1 day at 92 % RH ([1]; listed as Ex 46): 0.96 @ %
SMILES: N[C@H](CO)Cn1ccc(-c2ccc(Oc3ncc(-c4cc[nH]n4)cc3F)cc2)n1 [Example 46, (S)-2-amino-3-(3-(4-((3-fluoro-5-(1H-pyrazol-3-yl)pyridin-2-yl)oxy)phenyl)-1H-pyrazol-1-yl)propan-1-ol]

- Hygroscopicity (DVS), moisture reversibly absorbed (Hygroscopicity by DVS; above 70% RH, transforming into a hydrated form): 3%
- Hygroscopicity (DVS), moisture / water vapor absorbed (Hygroscopicity by DVS): 2.97 @ 95%
- Loss on drying by TGA, After 1 day at 92 % RH ([1]; listed as Ex 42): 2.46 @ %
SMILES: N[C@H](CO)Cn1ccc(-c2ccc(Oc3ncc(-c4cc[nH]n4)cc3F)cc2)n1 [Example 42, (S)-2-amino-3-(3-(4-((3-fluoro-5-(1H-pyrazol-3-yl)pyridin-2-yl)oxy)phenyl)-1H-pyrazol-1-yl)propan-1-ol]

- IC50 (human LTA4H): 2.6 nM
- IC50 [2]: 47 nM
SMILES: N[C@H](CO)Cn1ccc(-c2ccc(Oc3ncc(-c4cc[nH]n4)cc3F)cc2)n1 [Example 37, (S)-2-amino-3-(3-(4-((3-fluoro-5-(1H-pyrazol-5-yl)pyridin-2-yl)oxy)phenyl)-1H-pyrazol-1-yl)propan-1-ol]

- IC50 (human LTA4H): 4.9 nM
- IC50 [2]: 65 nM
SMILES: N[C@@H](CO)Cn1nnc(-c2ccc(Oc3ccc(-c4ccn[nH]4)cn3)cc2)n1 [Example 19, (R)-3-(5-(4-((5-(1H-pyrazol-3-yl)pyridin-2-yl)oxy)phenyl)-2H-tetrazol-2-yl)-2-aminopropan-1-ol]
